Assay results from paper PMC6694100, “The complex of ferric-enterobactin with its transporter from Pseudomonas aeruginosa suggests a two-site model” (Nature Communications, 2019).
Values joined by “and” are separate entries in the source; they are usually repeats but may differ in a detail not shown here. Equal entries are not always repeated. “Also recorded” adds a separate entry of the source.

What was measured:
[1] = tested on: ∆pfeA(pMMBpfeAR480AQ482A) cells (double-mutant PfeA); assay: 55Fe-enterobactin binding and uptake assay, ∆pfeA(pMMBpfeAR480AQ482A); type: cell-based, Pseudomonas aeruginosa; conditions: for 55Fe count, Comptage / 55Fe-enterobactin bound/taken up: replicates, Figure 6b-c, listed as 55Fe-enterobactin
Description: (§1) Fig. 6 Effects of PfeA mutation in vivo. a Analysis of changes in the transcription of pfeA gene. PAO1 strain, its corresponding deletion mutant ∆pfeA and deletion mutants carrying the expression plasmid of PfeA wild-type (∆pfeA(pMMBpfeA) or the R480A-Q482A mutant (∆pfeA(pMMBpfeAR480AQ482A)) were grown in CAA medium supplemented with 10 µM enterobactin. The data were normalised relative to the reference gene uvrD, and are representative of three independent experiments performed in triplicate (n = 3). The results are given as a ratio between the values obtained for ∆pfeA, ∆pfeA(pMMBpfeA) and ∆pfeA(pMMBpfeAR480AQ482A) over those obtained for the PAO1 strain. b ^55Fe-enterobactin binding at the bacterial surface. Cells were grown as in panel a, and were incubated for 15 min with 200 µM CCCP before initiation of transport assays by the addition of 500 nM ^55Fe-enterobactin. After 30 min incubation, the radioactivity accumulated in the bacteria was counted. The results are expressed as pmol of ^55Fe-enterobactin bound per ml of cells at an OD600 of 1. The experiments have been repeated three times. c ^55Fe-enterobactin binding and uptake. Cells were grown as in panel a, and were incubated with or without 200 µM CCCP before initiation of transport assays by the addition of 500 nM ^55Fe-enterobactin. After 30 min incubations, the radioactivity accumulated in the bacteria was counted. The results are expressed as pmol of ^55Fe-enterobactin bound and transported per ml of cells at an OD600 of 1. The experiments have been repeated three times
(§2) The complex was prepared at ^55Fe concentrations of 50 μM, with a siderophore:iron (mol:mol) ratio of 20:1. P. aeruginosa strains were first grown overnight at 30 °C in LB broth, and were then washed, resuspended and cultured overnight at 30 °C in iron-deficient CAA medium (casamino acid medium, composition: 5 g.l^−1 low-iron CAA (Difco), 1.46 g.l^−1 K2HPO4 3H2O, 0.25 g.l^−1 MgSO4 7H2O) and in the presence of 10 µM enterobactin to induce the expression of PfeA. CAA is a highly iron-restricted medium with iron concentrations of 20 nM[59]. Afterwards bacteria were washed with 50 mM Tris-HCl pH 8.0, and diluted to an OD600 of 1. Cells solutions were divided in two, one batch being treated with 200 μM CCCP. This compound collapses the proton-motive force across the bacterial cell membranes, inhibiting TonB-dependent iron uptake. Binding and transport assays were initiated by adding 500 nM ^55Fe-enterobactin to the bacterial solutions treated or not with CCCP. After 30 min of incubations, cells were centrifuged, and the radioactivity associated to the bacteria was monitored in the cell pellets. For the cells treated with CCCP, the radioactivity in the cell pellets corresponds to the binding of ^55Fe-enterobactin to P. aeruginosa cell surface, since no uptake occurs. In the absence of CCCP, the radioactivity associated to the cells corresponds to ^55Fe-enterobactin binding to the cell surface and the uptake into the bacteria.

PfeA R480A mutant = molecular target: T1, PfeA R480A mutant (Pseudomonas aeruginosa, UniProt Q05098, R505A); assay: isothermal titration calorimetry, PfeA R480A; type: binding
T1 construct: His7 tag with TEV protease site (N, cleaved yes); made in house; host or cells: E. coli C43 (DE3)
T1 sequence (Q05098 26-746 R505A): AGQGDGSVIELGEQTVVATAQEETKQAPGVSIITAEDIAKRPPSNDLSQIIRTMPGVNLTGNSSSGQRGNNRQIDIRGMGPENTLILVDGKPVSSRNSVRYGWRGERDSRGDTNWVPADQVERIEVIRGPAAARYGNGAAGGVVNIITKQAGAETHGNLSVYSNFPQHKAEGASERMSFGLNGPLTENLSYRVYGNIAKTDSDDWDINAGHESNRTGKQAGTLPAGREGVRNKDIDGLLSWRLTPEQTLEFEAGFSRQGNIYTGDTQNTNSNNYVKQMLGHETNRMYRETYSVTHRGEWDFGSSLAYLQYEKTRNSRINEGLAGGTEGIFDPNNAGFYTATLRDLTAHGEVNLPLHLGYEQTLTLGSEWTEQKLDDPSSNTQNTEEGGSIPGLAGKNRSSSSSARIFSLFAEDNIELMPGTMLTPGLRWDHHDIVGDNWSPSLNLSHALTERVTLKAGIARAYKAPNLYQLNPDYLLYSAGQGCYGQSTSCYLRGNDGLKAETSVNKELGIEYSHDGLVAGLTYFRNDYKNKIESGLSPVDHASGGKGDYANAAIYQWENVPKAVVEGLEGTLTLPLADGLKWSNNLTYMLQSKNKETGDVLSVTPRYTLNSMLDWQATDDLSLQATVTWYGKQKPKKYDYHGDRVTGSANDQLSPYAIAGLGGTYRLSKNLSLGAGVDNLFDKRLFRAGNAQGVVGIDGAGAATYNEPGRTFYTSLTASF
Description: The sites have different affinities for the ligand, one with high affinity and highly favourable enthalpy and the second with lower affinity and unfavourable enthalpy. Although the biphasic nature of the isotherm was reproducible, the numerical values varied. For K1, the binding constant was 20 to 100 nM; for K2 […]. […] The weaker binding at the […] site is consistent with the higher B-factor of the Fe^3+-enterobactin molecule observed in the complex crystal structures.
Affinities of PfeA wild-type and mutants for Fe^3+-enterobactin were measured by isothermal titration calorimetry using a VP-ITC instrument (GE Healthcare) at 25 °C. Titrations were performed using 57 × 5 μl injections of Fe^3+-enterobactin (70–55 μM) into 10 μM protein. The heats of dilution measured from injection of the ligands into the buffer were subtracted, and titration curves were fitted using AFFINImeter software with a two-site binding model. Concentrations of Fe^3+-enterobactin solutions were verified with UV/vis spectrophotometry using a published molar extinction coefficient of ε495 = 5600 M^−1 cm^−1. […] Reverse titration has been also performed (PfeA into Fe^3+-enterobactin), but data suffer from high heats of dilution in the beginning of the blank titration of PfeA into the buffer giving estimates of K1 = 95 nM and K2 = 4.5 μM for the wild-type.

wild-type PAO1 strain = assay: 55Fe-enterobactin binding and uptake assay, PAO1; type: cell-based, Pseudomonas aeruginosa; conditions: replicates, Figure 6b-c, listed as 55Fe-enterobactin
Description: as §1
as §2, with “This compound collapses the proton-motive force across the bacterial cell membranes, inhibiting TonB-dependent iron uptake. Binding and transport assays were initiated by adding 500 nM ^55Fe-enterobactin to the bacterial solutions treated or not with CCCP.” left out

[2] = ∆pfeA (pMMBpfeAR480AQ482A) + CCCP
[3] = ∆pfeA (pMMBpfeAR480AQ482A), no CCCP

O=C(N[C@H]1COC(=O)[C@@H](NC(=O)c2cccc([O-])c2[O-])COC(=O)[C@@H](NC(=O)c2cccc([O-])c2[O-])COC1=O)c1cccc([O-])c1[O-].[Fe+3] [Fe^3+-enterobactin]
^55Fe-enterobactin binding and uptake ([1]; cells not treated with CCCP, 500 nM ^55Fe-enterobactin, 30 min): inactive | 55Fe count, Comptage [1, 2]: 1611 dpm and 1344 dpm and 1594 dpm | 55Fe-enterobactin bound/taken up [1, 2]: 20.669 pmol/ml/DO600 and 17.2434 pmol/ml/DO600 and 20.4509 pmol/ml/DO600 | 55Fe count, Comptage [1, 3]: 2941 dpm and 2752 dpm and 2956 dpm | 55Fe-enterobactin bound/taken up [1, 3]: 37.7328 pmol/ml/DO600 and 35.3079 pmol/ml/DO600 and 37.9252 pmol/ml/DO600 | binding by ITC (PfeA R480A mutant): typical low affinity-binding curve profile; also recorded: weakened (but detectable) binding | 55Fe count, Comptage (wild-type PAO1 strain; PAO1 + CCCP): 1670 dpm and 1638 dpm and 1498 dpm | 55Fe-enterobactin bound/taken up (wild-type PAO1 strain; PAO1 + CCCP): 21.426 pmol/ml/DO600 and 21.0154 pmol/ml/DO600 and 19.2192 pmol/ml/DO600 | 55Fe count, Comptage (wild-type PAO1 strain; PAO1, no CCCP): 14331 dpm and 14149 dpm and 16177 dpm | 55Fe-enterobactin bound/taken up (wild-type PAO1 strain; PAO1, no CCCP): 183.866 pmol/ml/DO600 and 181.531 pmol/ml/DO600 and 207.55 pmol/ml/DO600
